This assay has as its target T1, glucocerebrosidase (Gcase) (Homo sapiens, UniProt P04062).
T1 construct: micellar solution containing 10 nM GCase and 100 nM saposin C
T1 sequence (P04062 40-536): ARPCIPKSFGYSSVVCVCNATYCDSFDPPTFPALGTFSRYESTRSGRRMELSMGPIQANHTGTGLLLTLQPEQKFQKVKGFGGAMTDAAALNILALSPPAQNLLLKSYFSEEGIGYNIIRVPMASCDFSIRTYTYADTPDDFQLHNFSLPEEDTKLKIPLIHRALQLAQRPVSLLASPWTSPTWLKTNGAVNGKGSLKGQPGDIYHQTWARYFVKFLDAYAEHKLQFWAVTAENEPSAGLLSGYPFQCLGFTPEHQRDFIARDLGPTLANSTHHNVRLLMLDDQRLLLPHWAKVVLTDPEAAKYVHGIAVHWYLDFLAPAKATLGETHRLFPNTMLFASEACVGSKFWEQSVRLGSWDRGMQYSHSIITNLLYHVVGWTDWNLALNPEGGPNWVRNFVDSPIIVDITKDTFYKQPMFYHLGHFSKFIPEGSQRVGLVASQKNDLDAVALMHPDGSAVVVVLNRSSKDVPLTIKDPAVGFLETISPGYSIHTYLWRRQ
The assay can be described thus: Glucocerebrosidase (Gcase) activation assay with 4-methylumbelliferyl-beta-D-glucopyranoside substrate, saposin C and phosphatidylserine/triton micelles, fluorescence readout. Format: biochemical. The following applies: Table 3A. The protocol: The ability of exemplary compounds to activate glucocerebrosidase (Gcase) was measured.
A 484 μL aliquot of a 1.0 mg/mL solution of phosphatidylserine (PS) (Sigma P7769) in chloroform was evaporated under a stream of nitrogen for 1 hour. The lipid film was dissolved over 4 minutes of vigorous vortexing in 40 mL of 176 mM K2HPO4/50 mM citric acid (pH 4.7) containing 7.5 μL of triton X-100, resulting in a mixed micellar preparation with a composition of 0.32 mM triton and 0.37 mol % PS. 4-Methylumbelliferyl-beta-D-glucopyranoside (ACROS-337025000) was dissolved in the micellar solution to a final concentration of 2 mM for use as the reaction substrate.
Test compounds were diluted to the desired concentrations with dimethylsulfoxide (DMSO) from 10 mM stocks, and 0.41 μL of the DMSO compound mixture was added to 100 μL of micellar solution containing 10 nM GCase and 100 nM saposin C (Enzo ALX-201-262-C050). Pre-incubation was allowed to occur for 30 minutes at room temperature, after which the reaction was initiated by combining 25 μL of substrate solution with 25 μL of compound/GCase/saposin mixture. The reaction proceeded for 15 minutes at room temperature and was stopped by adding 150 μL of 1M glycine, pH 12.5. The endpoint of the reaction was monitored by measuring fluorescence intensity (excitation: 365 nm; emission: 440 nm) on a SpectraMax i3 instrument (Molecular Devices). Test compounds were screened at 1.0 and 0.1 μM final concentration, and subsequent 8-point dose response curves were obtained using 3-fold dilutions from a maximum final concentration of 5 μM.

Data on 28 compounds can be found in patent US10934298B2, “Substituted pyrazolo[1,5-a]pyrimidines for the treatment of medical disorders” (BIAL—BioTech Investments, Inc., priority 2016, dated 2021).

Turning to `Cc1cc(-c2cccnc2)nc2c(C(=O)NC(C3CC3)C(F)(F)F)cnn12` (centres unmarked) [III-35], the “Percent Gcase Activation, 0.1 μM Test Compound” value was “** (Gcase activation in the range of 10% up to 20%)” and the “Percent Gcase Activation, 1 μM Test Compound” value was “+++ (Gcase activation greater than 60%)”.
As for `Cc1cc(-c2ccccn2)nc2c(C(=O)NC(C3CC3)C(F)(F)F)cnn12` (centres unmarked) [III-36], the “Percent Gcase Activation, 0.1 μM Test Compound” value was “*** (greater than 20% Gcase activation)” and the “Percent Gcase Activation, 1 μM Test Compound” value is “+++ (Gcase activation greater than 60%)”.
The like results for `Cc1cc(-c2cccnc2)nc2c(C(=O)N[C@H](C)c3ccc(Cl)cc3)cnn12` [III-37] were, in that order, “** (Gcase activation in the range of 10% up to 20%)” and “+++ (Gcase activation greater than 60%)”.
The like results for `Cc1cc(-c2cccnc2)nc2c(C(=O)N[C@H]3CC[C@H](OC(C)(C)C)CC3)cnn12` [III-38] were, in that order, “* (less than 10% Gcase activation)” and “+ (less than 30% Gcase activation)”.
The matching figures for `Cc1cc(-c2cccnc2)nc2c(C(=O)N[C@H]3CC[C@H](OCC(C)C)CC3)cnn12` [III-39]: “** (Gcase activation in the range of 10% up to 20%)” and “+++ (Gcase activation greater than 60%)”.
Regarding `CCCO[C@H]1CC[C@H](NC(=O)c2cnn3c(C)cc(-c4cccnc4)nc23)CC1` [III-40], the “Percent Gcase Activation, 0.1 μM Test Compound” value is reported as “* (less than 10% Gcase activation)” and the “Percent Gcase Activation, 1 μM Test Compound” value was “+ (less than 30% Gcase activation)”.
The like results for `Cc1cc(-c2cccnc2)nc2c(C(=O)NC(C(C)C)C(F)(F)F)cnn12` (centres unmarked) [III-41] were, in that order, “** (Gcase activation in the range of 10% up to 20%)” and “+++ (Gcase activation greater than 60%)”.
Regarding `CCC(NC(=O)c1cnn2c(C)cc(-c3cccnc3)nc12)C(F)(F)F` (centres unmarked) [III-42], the “Percent Gcase Activation, 0.1 μM Test Compound” value is on record as “* (less than 10% Gcase activation)” and the “Percent Gcase Activation, 1 μM Test Compound” value is “+++ (Gcase activation greater than 60%)”.
Regarding `Cc1cc(-c2cccnc2)nc2c(C(=O)NC(C)C(F)(F)F)cnn12` (centres unmarked) [III-43], the “Percent Gcase Activation, 0.1 μM Test Compound” value was “* (less than 10% Gcase activation)” and the “Percent Gcase Activation, 1 μM Test Compound” value was “++ (Gcase activation in the range of 30% up to 60%)”.
As for `Cc1cc(NC2CC2)nc2c(C(=O)NC(C3CC3)C(F)(F)F)cnn12` (centres unmarked) [III-44], the “Percent Gcase Activation, 0.1 μM Test Compound” value was “*** (greater than 20% Gcase activation)” and the “Percent Gcase Activation, 1 μM Test Compound” value is on record as “+++ (Gcase activation greater than 60%)”.
Regarding `Cc1cc(Cl)nc2c(C(=O)NC(C3CC3)C(F)(F)F)cnn12` (centres unmarked) [III-45], the “Percent Gcase Activation, 0.1 μM Test Compound” value was “*** (greater than 20% Gcase activation)” and the “Percent Gcase Activation, 1 μM Test Compound” value is reported as “+++ (Gcase activation greater than 60%)”.
For the compound `COCc1cc(-c2ccc(F)cc2)nc2c(C(=O)N[C@@H](C)C3CC3)cnn12` [III-46], the “Percent Gcase Activation, 0.1 μM Test Compound” value was “* (less than 10% Gcase activation)” and the “Percent Gcase Activation, 1 μM Test Compound” value is recorded as “++ (Gcase activation in the range of 30% up to 60%)”.
The matching figures for `COCc1cc(-c2ccc(F)cc2)nc2c(C(=O)NC(C)(C)C3CC3)cnn12` [III-47]: “** (Gcase activation in the range of 10% up to 20%)” and “+++ (Gcase activation greater than 60%)”.
The matching figures for `CCc1cc(-c2ccccn2)n2ncc(C(=O)NC(C)C3CC3)c2n1` (centres unmarked) [III-48]: “* (less than 10% Gcase activation)” and “++ (Gcase activation in the range of 30% up to 60%)”.
In the case of `CCc1cc(-c2ccccn2)nc2c(C(=O)NC(C)C3CC3)cnn12` (centres unmarked) [III-49], the “Percent Gcase Activation, 0.1 μM Test Compound” value is “* (less than 10% Gcase activation)” and the “Percent Gcase Activation, 1 μM Test Compound” value is “+++ (Gcase activation greater than 60%)”.
For `Cc1cc(-c2ccccn2)nc2c(C(=O)NC(C)C(F)(F)F)cnn12` (centres unmarked) [III-50], the “Percent Gcase Activation, 0.1 μM Test Compound” value was “** (Gcase activation in the range of 10% up to 20%)” and the “Percent Gcase Activation, 1 μM Test Compound” value is “+++ (Gcase activation greater than 60%)”.
Turning to `CCc1cc(-c2ccccn2)n2ncc(C(=O)NC(C)C(F)(F)F)c2n1` (centres unmarked) [III-51], the “Percent Gcase Activation, 0.1 μM Test Compound” value is “* (less than 10% Gcase activation)” and the “Percent Gcase Activation, 1 μM Test Compound” value was “+ (less than 30% Gcase activation)”.
The like results for `CCc1cc(-c2ccccn2)nc2c(C(=O)NC(C)C(F)(F)F)cnn12` (centres unmarked) [III-52] were, in that order, “* (less than 10% Gcase activation)” and “+++ (Gcase activation greater than 60%)”.
The matching figures for `COc1cccc(-c2cc(C)n3ncc(C(=O)NC(C)C(F)(F)F)c3n2)c1` (centres unmarked) [III-55]: “*** (greater than 20% Gcase activation)” and “+++ (Gcase activation greater than 60%)”.
The matching figures for `Cc1cc(-c2cccc(F)c2)nc2c(C(=O)N[C@@H](C)C3CC3)cnn12` [III-56]: “*** (greater than 20% Gcase activation)” and “+++ (Gcase activation greater than 60%)”.
On to `COc1cccc(-c2cc(C)n3ncc(C(=O)N[C@@H](C)C4CC4)c3n2)c1` [III-57], for which the “Percent Gcase Activation, 0.1 μM Test Compound” value is “*** (greater than 20% Gcase activation)” and the “Percent Gcase Activation, 1 μM Test Compound” value was “+++ (Gcase activation greater than 60%)”.
The like results for `Cc1cc(N2CCOCC2)nc2c(C(=O)NC(C)C3CC3)cnn12` (centres unmarked) [III-58] were, in that order, “* (less than 10% Gcase activation)” and “+ (less than 30% Gcase activation)”.
The matching figures for `Cc1cc(N2CCOCC2)nc2c(C(=O)NC(C)(C)C3CC3)cnn12` [III-59]: “* (less than 10% Gcase activation)” and “++ (Gcase activation in the range of 30% up to 60%)”.
The like results for `Cc1cc(N2CCC(F)(F)CC2)nc2c(C(=O)NC(C)C3CC3)cnn12` (centres unmarked) [III-60] were, in that order, “* (less than 10% Gcase activation)” and “++ (Gcase activation in the range of 30% up to 60%)”.
With `Cc1cc(N2CCCC(F)(F)C2)nc2c(C(=O)NC(C)C3CC3)cnn12` (centres unmarked) [III-61], the “Percent Gcase Activation, 0.1 μM Test Compound” value is listed as “*** (greater than 20% Gcase activation)” and the “Percent Gcase Activation, 1 μM Test Compound” value was “+++ (Gcase activation greater than 60%)”.
As for `Cc1cc(-c2cccc(Cl)n2)nc2c(C(=O)NC(C)(C)C3CC3)cnn12` [III-62], the “Percent Gcase Activation, 0.1 μM Test Compound” value was “*** (greater than 20% Gcase activation)” and the “Percent Gcase Activation, 1 μM Test Compound” value is “+++ (Gcase activation greater than 60%)”.
The matching figures for `C#CC(C)(C)NC(=O)c1cnn2c(C)cc(-c3cccc(Cl)n3)nc12` [III-63]: “** (Gcase activation in the range of 10% up to 20%)” and “++ (Gcase activation in the range of 30% up to 60%)”.
The like results for `Cc1cc(-c2cccc(Cl)c2)nc2c(C(=O)NC(C)C(F)(F)F)cnn12` (centres unmarked) [III-64] were, in that order, “*** (greater than 20% Gcase activation)” and “+++ (Gcase activation greater than 60%)”.
